The values that follow come from patent US9447069B2, “ROR modulators and their uses” (INNOV17 LLC, priority 2012, dated 2016).

Read-outs that look alike come from different tables or passages of the source. A value given as a limit tells only on which side of the number the result lay.

In one test the test system is IL-17F. Description: TH17 cytokine inhibition measured by ELISA (IL-17F). In kind it is cell-based. Conditions: 120 h; human TH17 cells, 5 days differentiation, ELISA of supernatants, 0.1% DMSO. As to the method:
(§1) Peripheral blood mononuclear cells (PBMCs) were sourced from freshly prepared leukocyte enriched plasma (buffy coat) from healthy volunteers from which PBMCs were isolated by density gradient centrifugation using Ficoll-Paque™ PLUS (GE Healthcare). Naïve CD4+ T cells were isolated using the Naïve CD4+ T cell Isolation Kit II (Miltenyi Biotec) as per manufacturer's instructions. CD4+ T cells were plated at 5×10^4 cells/well in 96 well plates pre-coated with immobilized human (h)-αCD3 antibody (eBioscience) then differentiated to TH17 cells using h-αCD28, h-αIFN-γ, h-αIL-4, h-IL-6, h-IL-23, h-IL-1β, h-TGF-β1 (eBioscience) and maintained in a cell culture incubator at 37° C. with 5% CO2 in TexMACS Medium (Miltenyi Biotec) supplemented with 1% Penicillin/Streptomycin (Lonza) over 5 days.
(§2) Human CD4+ T cells were differentiated to TH17 cells as described in the presence or absence of various concentrations of compounds in a final concentration of 0.1% DMSO in TexMACS medium. Supernatants were collected and stored at −20° C. until they were to be assayed for IL-17A, IL-17F, IL-17AF, IL-21 and/or IL-22 levels as determined by Ready-Set-Go ELISA kits (eBioscience) as per manufacturer's instructions. Endpoint absorbance was read at 450 nm and 570 nm according to manufacturer's instructions (eBioscience) using a microplate reader (Perkin Elmer). The percentage of cytokine inhibition was calculated with reference to DMSO treated cells and the IC50s were determined by GraphPad Prism software and presented in the table below.

The next test concerns IL-21. As to the kind of experiment: Real-Time qRT-PCR gene expression in TH17 cells (IL-21). More on the design: key: A: No change in gene expression observed relative to DMSO treated Th17 cells; B: Decreased gene expression observed relative to DMSO treated Th17 cells; C: Increased gene expression observed relative to DMSO treated Th17 cells. In kind it is cell-based, human. Conditions: normalized to six reference genes. As to the method:
as §1
(§3) RNA was isolated from TH17 cells and cDNA was synthesized using the Verso cDNA kit (Thermo Scientific) as per manufacturer's instructions. IL-17A, IL-17F, IL-21, IL-22, G-CSF, IL-23R and FOXP3 gene expression were determined for compound treated and untreated TH17 cell samples using Solaris qPCR Gene expression assays (Thermo Scientific) with an iCycler iQ Real-Time PCR Detection System (Bio-Rad). Individual gene expression was normalized to a panel of six reference genes (ACTB, TBP, HPRT1, PGK1, TFRC and PPIA) (Thermo Scientific) and analyzed by REST 2009 (Qiagen) in accordance to MIQE guidelines (Bustin et al. (2009) Clin. Chem, 55:611-622). The effects of compounds on TH17 cytokine gene expression are presented as fold change in mRNA levels of compound treated TH17 cells relative to DMSO treated cells in the table below.

In the next test the target is T1, RORα LBD (Homo sapiens, UniProt P35398).
T1 construct: purified GST-tagged (i) RORγ LBD or (ii) RORα LBD; purchased Life Technologies
T1 sequence (P35398 272-510 limits assumed): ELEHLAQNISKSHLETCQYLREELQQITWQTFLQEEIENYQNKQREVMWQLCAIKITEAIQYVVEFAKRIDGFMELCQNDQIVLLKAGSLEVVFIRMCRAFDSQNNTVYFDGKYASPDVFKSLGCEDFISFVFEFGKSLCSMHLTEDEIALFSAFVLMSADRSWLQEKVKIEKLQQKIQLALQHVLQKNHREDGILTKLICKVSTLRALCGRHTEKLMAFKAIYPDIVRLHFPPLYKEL
As to the kind of experiment: TR-FRET NCoR1-D2 co-repressor recruitment to RORα LBD. In kind it is biochemical. From the text: (§4) The Time-Resolved Fluorescence Resonance Energy Transfer (TR-FRET) assay kit (Life Technologies) was used to measure compound efficacy to disrupt or enhance ligand-mediated interaction of the co-activator and co-repressor peptides with the purified GST-tagged (i) RORγ LBD or (ii) RORα LBD. The RORγ LBD and RORα LBD each have a basal level of interaction with the co-activator D22 or co-repressor NCoR1-D2 in the absence of ligand, thus it is possible to identify compounds that inhibit or induce RORγ and/or RORα co-activator/co-repressor interactions, thus determining RORα, RORγ, or RORα/RORγ compound selectivity. The assay was performed as per manufacturer's instructions and TR-FRET was assessed 2 and 20 hours post-assay initiation. Compounds were identified to (i) have no impact on either co-activator displacement or […] from the assessed LBD (ii) promote co-activator displacement from the assessed LBD (iii) promote co-repressor recruitment to the assessed LBD or (iv) concurrently promote co-activator displacement from the assessed LBD and co-repressor recruitment to the assessed LBD.

Test [1] has as its target T2, RORγ LBD (Homo sapiens, UniProt P51449).
T2 sequence (P51449 269-508 limits assumed): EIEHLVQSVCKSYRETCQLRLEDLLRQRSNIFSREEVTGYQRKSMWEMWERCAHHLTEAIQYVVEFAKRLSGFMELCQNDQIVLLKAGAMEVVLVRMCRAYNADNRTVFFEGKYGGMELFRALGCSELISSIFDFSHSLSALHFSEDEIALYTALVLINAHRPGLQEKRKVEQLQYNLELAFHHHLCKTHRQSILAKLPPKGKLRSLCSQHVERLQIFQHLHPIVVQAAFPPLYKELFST
As to the kind of experiment: RORγ LBD binding (Human RORγ Assay System, INDIGO Biosciences). Conditions: 0.5% DMSO. More on the design: purchased INDIGO Biosciences Inc. As to the method:
Compound binding to the human RORγ LBD was assessed using the Human RORγ Assay System (INDIGO Biosciences Inc.) as per manufacturer's instructions.

Another test has as its system IL-23R. Description: Real-Time qRT-PCR gene expression in TH17 cells (IL-23R). In kind it is cell-based, human. More on the design: key: A: No change in gene expression observed relative to DMSO treated Th17 cells; B: Decreased gene expression observed relative to DMSO treated Th17 cells; C: Increased gene expression observed relative to DMSO treated Th17 cells. To be noted: normalized to six reference genes. As to the method:
as §1, §3

The next test relates to IL-22. Description: TH17 cytokine inhibition measured by ELISA (IL-22). In kind it is cell-based. Conditions: 120 h; human TH17 cells, 5 days differentiation, ELISA of supernatants, 0.1% DMSO. Here is the method:
as §1, §2

Test [2] addresses T2, RORγ LBD. Description: TR-FRET NCoR1-D2 co-repressor recruitment to RORγ LBD. On the set-up: purified GST-tagged (i) RORγ LBD or (ii) RORα LBD; purchased Life Technologies. In kind it is biochemical.
Description: as §4

[3] abbreviates: TR-FRET assessed 2 hr post-assay initiation, read-out: RORα EC50 NCoR1-D2 co-repressor recruitment, 2 hr.
Where [4] appears, read: TR-FRET assessed 20 hr post-assay initiation, read-out: RORα EC50 NCoR1-D2 co-repressor recruitment, 20 hr.
Setting [5] is: TR-FRET assessed 2 hr post-assay initiation, read-out: RORγ EC50 NCoR1-D2 co-repressor recruitment, 2 hr.
Where [6] appears, read: TR-FRET assessed 20 hr post-assay initiation, read-out: RORγ EC50 NCoR1-D2 co-repressor recruitment, 20 hr.

Take `Cc1cc(-c2ccc3c(c2)CCCN3Cc2ccc(C(O)(C(F)(F)F)C(F)(F)F)cc2)[nH]n1` [Example 1, 1,1,1,3,3,3-hexafluoro-2-(4-((6-(3-methyl-1H-pyrazol-5-yl)-3,4-dihydroquinolin-1(2H)-yl)methyl)phenyl)propan-2-ol]: the IC50 in the test with IL-17F was < 10 µM; on RORγ LBD [1], > 10 µM; with IL-22 it was < 10 µM. The “Fold change in mRNA levels of compound treated TH17 cells relative to DMSO treated cells, IL-21” value in the test with IL-21 is “B”. Also, the EC50 at RORα LBD (setting [3]) was < 30 µM; at RORα LBD (setting [4]), < 30 µM; on RORγ LBD [2] (setting [5]) it was > 30 µM; on RORγ LBD [2] (setting [6]), < 30 µM. Further, the “Fold change in mRNA levels of compound treated TH17 cells relative to DMSO treated cells, IL-23R” value with IL-23R is “A”.
With `O=C1CCc2cc(-c3cn[nH]c3)ccc2N1Cc1ccc(C(O)(C(F)(F)F)C(F)(F)F)cc1` [Example 5, 1-(4-(1,1,1,3,3,3-hexafluoro-2-hydroxypropan-2-yl)benzyl)-6-(1H-pyrazol-4-yl)-3,4-dihydroquinolin-2(1H)-one], the results for the IC50 in the test on IL-17F, on RORγ LBD [1] and in the test on IL-22 were < 10 µM, > 10 µM and < 10 µM, respectively. In addition, in the test with IL-21, the “Fold change in mRNA levels of compound treated TH17 cells relative to DMSO treated cells, IL-21” value is listed as “A”. The EC50 was < 30 µM on RORα LBD (setting [3]), > 30 µM at RORα LBD (setting [4]), > 30 µM on RORγ LBD [2] (setting [5]) and < 30 µM at RORγ LBD [2] (setting [6]). Besides, the “Fold change in mRNA levels of compound treated TH17 cells relative to DMSO treated cells, IL-23R” value in the test on IL-23R is recorded as “A”.
Regarding `Cc1cc(-c2ccc3c(c2)CCC(=O)N3Cc2ccc(C(O)(C(F)(F)F)C(F)(F)F)cc2)[nH]n1` [Example 4, 1-(4-(1,1,1,3,3,3-hexafluoro-2-hydroxypropan-2-yl)benzyl)-6-(3-methyl-1H-pyrazol-5-yl)-3,4-dihydroquinolin-2(1H)-one], the IC50 in the test with IL-17F, at RORγ LBD [1] and in the test with IL-22 was < 10 µM each time. Moreover, the “Fold change in mRNA levels of compound treated TH17 cells relative to DMSO treated cells, IL-21” value in the test on IL-21 is “B”. Further, the EC50 on RORα LBD (setting [3]) is > 30 µM; at RORα LBD (setting [4]), < 30 µM; on RORγ LBD [2] (setting [5]), > 30 µM; at RORγ LBD [2] (setting [6]), < 30 µM. Further, the “Fold change in mRNA levels of compound treated TH17 cells relative to DMSO treated cells, IL-23R” value with IL-23R is “A”.
In the case of `Cc1n[nH]c(-c2ccc3c(c2)CCCN3Cc2ccc(C(O)(C(F)(F)F)C(F)(F)F)cc2)n1` [Example 3, 1,1,1,3,3,3-hexafluoro-2-(4-((6-(3-methyl-1H-1,2,4-triazol-5-yl)-3,4-dihydroquinolin-1(2H)-yl)methyl)phenyl)propan-2-ol], the IC50 was < 10 µM in the test with IL-17F, > 10 µM on RORγ LBD [1] and < 10 µM in the test with IL-22. Besides, the “Fold change in mRNA levels of compound treated TH17 cells relative to DMSO treated cells, IL-21” value in the test on IL-21 was “B”. For the same molecule, the EC50 on RORα LBD (setting [3]) was > 30 µM; at RORα LBD (setting [4]), < 30 µM; on RORγ LBD [2] (setting [5]), > 30 µM; at RORγ LBD [2] (setting [6]), < 30 µM. Moreover, the “Fold change in mRNA levels of compound treated TH17 cells relative to DMSO treated cells, IL-23R” value with IL-23R was “A”.
`Cc1n[nH]c(-c2ccc3c(c2)CCC(=O)N3Cc2ccc(C(O)(C(F)(F)F)C(F)(F)F)cc2)n1` [Example 6, 1-(4-(1,1,1,3,3,3-hexafluoro-2-hydroxypropan-2-yl)benzyl)-6-(3-methyl-1H-1,2,4-triazol-5-yl)-3,4-dihydroquinolin-2(1H)-one]: the IC50 was > 10 µM in the test on IL-17F, > 10 µM on RORγ LBD [1] and < 10 µM in the test with IL-22. In addition, the “Fold change in mRNA levels of compound treated TH17 cells relative to DMSO treated cells, IL-21” value with IL-21 was “A”. The EC50 at RORα LBD (setting [3]), at RORα LBD (setting [4]), at RORγ LBD [2] (setting [5]) and at RORγ LBD [2] (setting [6]) was > 30 µM each time. Also, the “Fold change in mRNA levels of compound treated TH17 cells relative to DMSO treated cells, IL-23R” value with IL-23R was “C”.
As to `OC(c1ccc(CN2CCCc3cc(-c4cn[nH]c4)ccc32)cc1)(C(F)(F)F)C(F)(F)F` [Example 2, 2-(4-((6-(1H-pyrazol-4-yl)-3,4-dihydroquinolin-1(2H)-yl)methyl)phenyl)-1,1,1,3,3,3-hexafluoropropan-2-ol], the IC50 was < 10 µM with IL-17F, > 10 µM on RORγ LBD [1] and < 10 µM with IL-22. In the test on IL-21, the “Fold change in mRNA levels of compound treated TH17 cells relative to DMSO treated cells, IL-21” value is given as “B”. Moreover, the EC50 at RORα LBD (setting [3]), on RORα LBD (setting [4]), at RORγ LBD [2] (setting [5]) and on RORγ LBD [2] (setting [6]) was < 30 µM in each case. In addition, the “Fold change in mRNA levels of compound treated TH17 cells relative to DMSO treated cells, IL-23R” value with IL-23R is “A”.
